What was measured:
Test in all cases: relative viability (nuclei count vs DMSO), 5 days (fraction); higher = more cells survive
NCI-H2347 = test system: NCI-H2347
How it was run: (§1)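 Lung cancer cell lines were seeded in 1536-well plates and dosed by pin tool the next day, with either a single drug or a fixed anchor-drug dose combined with five library-drug doses (not always all listed) spaced in √10 steps. Five days later, one step fixed the cells and stained their nuclei (final 0.05% Triton X-100, 1% formaldehyde, 1 ug/ml Hoechst), and nuclei were counted on 4× images. Relative viability is the nuclei count in treated wells divided by the count in vehicle wells, and each value is the median of duplicate plates.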

SW 1573 = test system: SW 1573
How it was run: as §1

HARA = test system: HARA
How it was run: as §1

LU99A = test system: LU99A
How it was run: as §1

UMC-11 = test system: UMC-11
How it was run: as §1

NCI-H838 = test system: NCI-H838
How it was run: as §1

NCI-H2126 = test system: NCI-H2126
How it was run: as §1

EPLC-272H = test system: EPLC-272H
How it was run: as §1

NCI-H1651 = test system: NCI-H1651
How it was run: as §1

NCI-H1915 = test system: NCI-H1915
How it was run: as §1

NCI-H460 = test system: NCI-H460
How it was run: as §1

HCC-15 = test system: HCC-15
How it was run: as §1

NCI-H358 = test system: NCI-H358
How it was run: as §1

NCI-H2009 = test system: NCI-H2009
How it was run: as §1

NCI-H1993 = test system: NCI-H1993
How it was run: as §1

NCI-H650 = test system: NCI-H650
How it was run: as §1

NCI-H2085 = test system: NCI-H2085
How it was run: as §1

PC-14 = test system: PC-14
How it was run: as §1

ABC-1 = test system: ABC-1
How it was run: as §1

COR-L23 = test system: COR-L23
How it was run: as §1

HCC-78 = test system: HCC-78
How it was run: as §1

LC-2-ad = test system: LC-2-ad
How it was run: as §1

Structure (SMILES): Clc1ccc(Nc2nnc(Cc3ccncc3)c3ccccc23)cc1 [Vatalanib] + C[C@@H](Oc1cc(-c2cnn(C3CCNCC3)c2)cnc1N)c1c(Cl)ccc(F)c1Cl [Crizotinib] (partner 1 µM)
- relative viability (NCI-H2347; first compound 0.04 µM): 0.642
- relative viability (NCI-H2347; first compound 0.1265 µM): 0.69
- relative viability (NCI-H2347; first compound 0.4 µM): 0.654
- relative viability (NCI-H2347; first compound 1.265 µM): 0.817
- relative viability (NCI-H2347; first compound 4 µM): 0.732
- relative viability (SW 1573; first compound 0.04 µM): 0.918
- relative viability (SW 1573; first compound 0.1265 µM): 0.721
- relative viability (SW 1573; first compound 0.4 µM): 0.942
- relative viability (SW 1573; first compound 1.265 µM): 0.627
- relative viability (SW 1573; first compound 4 µM): 0.817
- relative viability (HARA; first compound 0.04 µM): 0.99
- relative viability (HARA; first compound 0.1265 µM): 0.956
- relative viability (HARA; first compound 0.4 µM): 1.01
- relative viability (HARA; first compound 1.265 µM): 1.07
- relative viability (HARA; first compound 4 µM): 0.998
- relative viability (LU99A; first compound 0.04 µM): 0.597
- relative viability (LU99A; first compound 0.1265 µM): 0.524
- relative viability (LU99A; first compound 0.4 µM): 0.63
- relative viability (LU99A; first compound 1.265 µM): 0.528
- relative viability (LU99A; first compound 4 µM): 0.513
- relative viability (UMC-11; first compound 0.04 µM): 0.616
- relative viability (UMC-11; first compound 0.1265 µM): 0.585
- relative viability (UMC-11; first compound 0.4 µM): 0.719
- relative viability (UMC-11; first compound 1.265 µM): 0.586
- relative viability (UMC-11; first compound 4 µM): 0.629
- relative viability (NCI-H838; first compound 0.04 µM): 0.837
- relative viability (NCI-H838; first compound 0.1265 µM): 0.867
- relative viability (NCI-H838; first compound 0.4 µM): 1.01
- relative viability (NCI-H838; first compound 1.265 µM): 0.73
- relative viability (NCI-H838; first compound 4 µM): 0.79
- relative viability (NCI-H2126; first compound 0.04 µM): 0.977
- relative viability (NCI-H2126; first compound 0.1265 µM): 1.03
- relative viability (NCI-H2126; first compound 0.4 µM): 1.05
- relative viability (NCI-H2126; first compound 1.265 µM): 1.07
- relative viability (NCI-H2126; first compound 4 µM): 0.992
- relative viability (EPLC-272H; first compound 0.04 µM): 0.836
- relative viability (EPLC-272H; first compound 0.1265 µM): 0.779
- relative viability (EPLC-272H; first compound 0.4 µM): 0.965
- relative viability (EPLC-272H; first compound 1.265 µM): 0.919
- relative viability (EPLC-272H; first compound 4 µM): 0.955
- relative viability (NCI-H1651; first compound 0.04 µM): 0.865
- relative viability (NCI-H1651; first compound 0.1265 µM): 0.839
- relative viability (NCI-H1651; first compound 0.4 µM): 0.858
- relative viability (NCI-H1651; first compound 1.265 µM): 0.86
- relative viability (NCI-H1651; first compound 4 µM): 0.925
- relative viability (NCI-H1915; first compound 0.04 µM): 0.939
- relative viability (NCI-H1915; first compound 0.1265 µM): 0.869
- relative viability (NCI-H1915; first compound 0.4 µM): 0.885
- relative viability (NCI-H1915; first compound 1.265 µM): 0.92
- relative viability (NCI-H1915; first compound 4 µM): 0.918
- relative viability (NCI-H460; first compound 0.04 µM): 0.878
- relative viability (NCI-H460; first compound 0.1265 µM): 0.827
- relative viability (NCI-H460; first compound 0.4 µM): 1.21
- relative viability (NCI-H460; first compound 1.265 µM): 0.748
- relative viability (NCI-H460; first compound 4 µM): 0.856
- relative viability (HCC-15; first compound 0.04 µM): 0.9
- relative viability (HCC-15; first compound 0.1265 µM): 0.768
- relative viability (HCC-15; first compound 0.4 µM): 0.79
- relative viability (HCC-15; first compound 1.265 µM): 0.812
- relative viability (HCC-15; first compound 4 µM): 0.841
- relative viability (NCI-H358; first compound 0.04 µM): 0.641
- relative viability (NCI-H358; first compound 0.1265 µM): 0.522
- relative viability (NCI-H358; first compound 0.4 µM): 0.8
- relative viability (NCI-H358; first compound 1.265 µM): 0.585
- relative viability (NCI-H358; first compound 4 µM): 0.602
- relative viability (NCI-H2009; first compound 0.04 µM): 0.987
- relative viability (NCI-H2009; first compound 0.1265 µM): 0.478
- relative viability (NCI-H2009; first compound 0.4 µM): 1.12
- relative viability (NCI-H2009; first compound 1.265 µM): 1
- relative viability (NCI-H2009; first compound 4 µM): 0.977
- relative viability (NCI-H1993; first compound 0.04 µM): 0.948
- relative viability (NCI-H1993; first compound 0.1265 µM): 0.853
- relative viability (NCI-H1993; first compound 0.4 µM): 0.935
- relative viability (NCI-H1993; first compound 1.265 µM): 0.805
- relative viability (NCI-H1993; first compound 4 µM): 0.846
- relative viability (NCI-H650; first compound 0.04 µM): 0.726
- relative viability (NCI-H650; first compound 0.1265 µM): 0.627
- relative viability (NCI-H650; first compound 1.265 µM): 0.641
- relative viability (NCI-H650; first compound 4 µM): 0.606
- relative viability (NCI-H2085; first compound 0.04 µM): 0.754
- relative viability (NCI-H2085; first compound 0.1265 µM): 0.779
- relative viability (NCI-H2085; first compound 0.4 µM): 1.04
- relative viability (NCI-H2085; first compound 1.265 µM): 0.787
- relative viability (NCI-H2085; first compound 4 µM): 0.888
- relative viability (PC-14; first compound 0.04 µM): 0.976
- relative viability (PC-14; first compound 0.1265 µM): 0.916
- relative viability (PC-14; first compound 0.4 µM): 0.956
- relative viability (PC-14; first compound 1.265 µM): 0.825
- relative viability (PC-14; first compound 4 µM): 0.865
- relative viability (ABC-1; first compound 0.04 µM): 1.01
- relative viability (ABC-1; first compound 0.1265 µM): 1
- relative viability (ABC-1; first compound 0.4 µM): 1.37
- relative viability (ABC-1; first compound 1.265 µM): 0.89
- relative viability (ABC-1; first compound 4 µM): 1.13
- relative viability (COR-L23; first compound 0.04 µM): 0.7
- relative viability (COR-L23; first compound 0.1265 µM): 0.558
- relative viability (COR-L23; first compound 0.4 µM): 0.668
- relative viability (COR-L23; first compound 1.265 µM): 0.683
- relative viability (COR-L23; first compound 4 µM): 0.632
- relative viability (HCC-78; first compound 0.04 µM): 0.318
- relative viability (HCC-78; first compound 0.1265 µM): 0.324
- relative viability (HCC-78; first compound 0.4 µM): 0.35
- relative viability (HCC-78; first compound 4 µM): 0.306
- relative viability (LC-2-ad; first compound 0.04 µM): 0.515
- relative viability (LC-2-ad; first compound 0.1265 µM): 0.436
- relative viability (LC-2-ad; first compound 1.265 µM): 0.456
- relative viability (LC-2-ad; first compound 4 µM): 0.458

Reference: the supplement of paper PMC10307832
